{"source": "paper PMC3735939", "about": "“The low levels of eicosapentaenoic acid in rat brain phospholipids are maintained via multiple redundant mechanisms” (Journal of Lipid Research, 2013)", "key": {"[1]": {"test": "Brain unesterified FA concentrations (GC-MS; EPA by LC-MS/MS) in vehicle- or MEP-treated rats", "type": "in vivo, rat", "settings": "MEP vs vehicle", "method": "At 15 weeks of age, 16 rats were randomized to receive vehicle or 10 mg/kg MEP via tail vein catheter as described above. […] Brain hemispheres were homogenized in ethanol to yield a concentration of 100 mg tissue/ml. The unesterified FAs from 100 mg of brain tissue were isolated. The unesterified FA bands were collected and extracted twice from silica by hexane:isopropanol (3:2 by volume) with 5.5% water. […] The mixtures were shaken for 15 min and dried down with nitrogen gas. FA-PFB esters (FAPEs) were reconstituted in 100 μl hexane for GC-MS analysis as described below. For measurements of unesterified EPA, brain samples were homogenized in ethanol on ice. An aliquot of 100 mg tissue was spiked with ARA-d8 (20 ng; Cayman Chemical, Ann Arbor, MI) and dried under nitrogen gas in reduced light conditions. Residues were dissolved in ethanol, acidified to pH 4 with 1 N HCl, and extracted three times with ethyl acetate. After washing to neutrality with water, the ethyl acetate fraction was dried under nitrogen and transferred to siliconized minivials for liquid chromatography-tandem mass spectrometry (LC-MS/MS) analysis as described below. Brain unesterified EPA was detected using an Agilent HPLC 1200 equipped with a Zorbax SB-Phenyl column. HPLC solvent contained 4 μl/l propionic acid. The initial conditions of elution were set at 400 μl/min gradient system consisting of (A) water and (B) acetonitrile. […] Mass spectrometry analyses were carried out on API5500 triple quadruple mass spectrometer (AB SCIEX, Concord, ON, Canada). The QTRAP analyses were conducted in electrospray ionization negative ion mode. The turbospray temperature was set to 500°C and the ion spray voltage to 4,500 V. The collision energy, declustering potential, and collision cell exit potential were optimized and were set to 15, 50, and 11, respectively. Concentration was quantified by comparing the deuterium-to-protium ratio of brain unesterified EPA with standard lines generated from authentic standards. Authentic standards in appropriate dilutions (0.002-2 ng) were prepared and analyzed simultaneously with brain samples. The lower limit of quantification (LLQ) was 0.002 ng (6.3 fmol of […] identified with an Agilent 7890A gas chromatograph (Agilent Technologies) equipped with a SP-2380 (Supelco) fused silica column (Agilent Technologies; 30 m × 0.25 mm I.D. × 0.2 μm film thickness) and an Agilent 5975C quadruple mass spectrometry detector (Agilent Technologies). The sample was injected in split mode (10:1). The injection port temperature was set to 240°C and the ionization mode was set to negative chemical ionization using methane. FAPEs were eluted using a temperature program initially set at 150°C for 1 min, increase at 12°C/min to 270°C, and then at 40°C/min to 275°C for 3 min. […]"}, "[2]": {"test": "Brain acyl-CoA concentrations (LC-MS/MS) in vehicle- or MEP-treated rats", "type": "in vivo, rat", "settings": "MEP vs vehicle", "method": "At 15 weeks of age, 16 rats were randomized to receive vehicle or 10 mg/kg MEP via tail vein catheter as described above. Fifteen minutes post injection, rats were euthanized by head-focused high energy microwave irradiation (13.5 kW for 1.6 s) and brains were excised and sagittally cut for unesterified FAs/lipid mediators and acyl-CoA analyses as described below. Brain hemispheres were homogenized in ethanol to yield a concentration of 100 mg tissue/ml. The unesterified FAs from 100 mg of brain tissue were isolated. The unesterified FA bands were collected and extracted twice from silica by hexane:isopropanol (3:2 by volume) with 5.5% water. Extracted unesterified FAs were dried down with nitrogen gas and added with 100 μl of freshly made pentafluorobenzylbromide (PFB) cocktail consisting of acetonitrile:N,N-diisopropylethylamine:PFB (1 ml:100 μl:10 μl by volume). The mixtures were shaken for 15 min and dried down with nitrogen gas. FA-PFB esters (FAPEs) were reconstituted in 100 μl hexane for GC-MS analysis as described below.\nLong chain acyl-CoA was extracted from the brains of vehicle- and MEP-treated rats as well as the brains of radiotracer-infused rats using a modified affinity chromatography method ([40]). Brains were homogenized by a probe sonicator in isopropanol:25 mM KH2PO4:acetonitrile (1:1:2 by volume) with 10 nmol of added internal standard, heptadecanoyl-CoA (17:0-CoA). Subsequently, protein was precipitated from the homogenate by the addition of saturated (NH4)2SO4. […]\nAcyl-CoA concentrations were detected using an Agilent 1200 Binary LC pump (Agilent Technologies, Wilmington, DE) equipped with a Zorbax SB-Phenyl column (3 × 50 mm, 3.5 μm spherical size; Chromatographic Specialties, Brockville, ON, Canada). […] Peaks were identified and quantified by mass transitions, compound specific parameters, and standard curves of authentic acyl-CoA standards (Avanti, Alabaster, AL) (supplementary Fig. I). Concentrations were corrected for percent recovery of heptadecanoyl-CoA and expressed as nmol/g brain."}}}
{"smiles": "CCCCCCCCCCCCCCC1(C(=O)OC)CO1", "note": "(stereo not shown) [MEP, methyl-2-tetradecylglycidate, reference compound]", "values": [{"measurement": "fold increase in brain unesterified EPA", "setting": "[1]", "value": 1.3, "unit": "fold"}, {"measurement": "fold increase in brain unesterified linoleate (18:2n-6)", "setting": "[1]", "value": 1.4, "unit": "fold"}, {"measurement": "fold increase in brain unesterified palmitate", "setting": "[1]", "value": 2.5, "unit": "fold"}, {"measurement": "fold increase in brain unesterified α-linolenate (18:3n-3)", "setting": "[1]", "value": 1.5, "unit": "fold"}, {"measurement": "increase in brain α-linolenoyl-CoA concentration", "setting": "[2]", "value": 49, "unit": "%"}, {"measurement": "reduction in brain DHA-CoA", "setting": "[2]", "value": 26, "unit": "%"}, {"measurement": "reduction in brain EPA-CoA", "setting": "[2]", "value": 16, "unit": "%"}]}
